Values of other authors in US8399018B2, “Controlled release ion channel modulator compositions and methods for the treatment of otic disorders” (priority 2008, dated 2013).

How the values were obtained:
tinnitus = conditions: administered by IV
V2-R = conditions: infusion into the scala tympani
guinea pigs = conditions: chronic administration

## CCN(CC)CC(=O)Nc1c(C)cccc1C [Lidocaine]
tinnitus
  sufferers in whom noise associated with tinnitus is reduced or eliminated: 60-80%

## Cc1ccccc1C(=O)Nc1ccc(C(=O)N2CCCC(N(C)C)c3ccccc32)cc1 (stereo not drawn) [OPC-31260]
V2-R
  reduction of Meniere's disease symptoms: marked reduction

## NC(=O)CC[C@@H]1NC(=O)[C@H](Cc2ccccc2)NC(=O)[C@H](Cc2ccc(O)cc2)NC(=O)[C@@H](N)CSSC[C@@H](C(=O)N2CCC[C@H]2C(=O)N[C@@H](CCCN=C(N)N)C(=O)NCC(N)=O)NC(=O)[C@H](CC(N)=O)NC1=O [VP, vasopressin]
Guinea pigs
  induction of endolymphatic hydrops: induces endolymphatic hydrops
